Data set [1] deals with Tyrosine-protein kinase Lck (Homo sapiens, UniProt P06239).
Data set [2] can be described thus: Clearance in Sprague-Dawley rat at 2 mg/kg, iv. Format: ADME, organism-based. Also noted: dose 2 mg/kg, route intravenous. The following applies: in vivo.
Data set [3] in a line: Volume of distribution in Sprague-Dawley rat at 2 mg/kg, iv. The following applies: in vivo, read-out: Vss. Format: ADME, organism-based. Also noted: dose 2 mg/kg, route intravenous.
A short description of data set [4]: Half life in Sprague-Dawley rat at 2 mg/kg, iv. Set-up: dose 2 mg/kg, route intravenous. The following applies: in vivo. The format is ADME, organism-based.
A short description of data set [5]: AUC (0-infinity) in Sprague-Dawley rat at 5 mg/kg, po. The format is ADME, organism-based. The following applies: plasma. Also noted: time infinity, dose 5 mg/kg, route oral.
Data set [6] in a line: Oral bioavailability in Sprague-Dawley rat at 5 mg/kg, po. The following applies: in vivo. Format: ADME, organism-based.
Data set [7] concerns the target Vascular endothelial growth factor receptor 2 (Homo sapiens, UniProt P35968).
Data set [8] deals with T1, Angiopoietin-1 receptor (Homo sapiens, UniProt Q02763). Description: Inhibition of Ang1-stimulated TIE2 phosphorylation in EA.hy 926 endothelial cell line. Format: functional, cell-based.
T1 sequence (Q02763 whole entry): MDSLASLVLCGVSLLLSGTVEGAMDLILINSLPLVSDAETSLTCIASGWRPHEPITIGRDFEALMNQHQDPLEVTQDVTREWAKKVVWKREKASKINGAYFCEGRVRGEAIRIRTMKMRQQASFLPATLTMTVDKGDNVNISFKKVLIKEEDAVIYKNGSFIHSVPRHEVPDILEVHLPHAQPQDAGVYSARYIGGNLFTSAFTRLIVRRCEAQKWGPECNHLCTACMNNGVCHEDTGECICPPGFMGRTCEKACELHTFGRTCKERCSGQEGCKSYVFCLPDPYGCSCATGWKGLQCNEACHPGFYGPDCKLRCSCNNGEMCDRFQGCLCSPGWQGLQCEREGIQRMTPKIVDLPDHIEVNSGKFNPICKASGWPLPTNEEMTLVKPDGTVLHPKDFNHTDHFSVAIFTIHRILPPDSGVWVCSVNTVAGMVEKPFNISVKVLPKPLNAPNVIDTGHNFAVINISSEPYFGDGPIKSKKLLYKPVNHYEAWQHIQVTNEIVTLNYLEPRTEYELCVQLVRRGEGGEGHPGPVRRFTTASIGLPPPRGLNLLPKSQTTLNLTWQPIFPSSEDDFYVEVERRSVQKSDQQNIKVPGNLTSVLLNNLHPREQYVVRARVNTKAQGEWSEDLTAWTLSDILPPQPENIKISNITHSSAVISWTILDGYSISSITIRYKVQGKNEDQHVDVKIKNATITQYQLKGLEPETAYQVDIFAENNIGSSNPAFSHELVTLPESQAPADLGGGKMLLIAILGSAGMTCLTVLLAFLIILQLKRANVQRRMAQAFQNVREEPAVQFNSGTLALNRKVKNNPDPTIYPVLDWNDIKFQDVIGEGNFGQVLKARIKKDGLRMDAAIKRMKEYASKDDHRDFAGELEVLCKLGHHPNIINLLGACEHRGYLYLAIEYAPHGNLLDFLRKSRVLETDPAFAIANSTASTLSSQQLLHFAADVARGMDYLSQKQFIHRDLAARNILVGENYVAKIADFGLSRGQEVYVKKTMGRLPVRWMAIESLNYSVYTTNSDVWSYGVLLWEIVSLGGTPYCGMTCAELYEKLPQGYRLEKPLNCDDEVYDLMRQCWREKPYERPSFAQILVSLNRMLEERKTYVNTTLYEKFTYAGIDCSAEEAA
Data set [9] addresses Tyrosine-protein kinase Fgr (Homo sapiens, UniProt P09769). In words: Inhibition of FGR.
For data set [10], the target named is Tyrosine-protein kinase Lyn (Homo sapiens, UniProt P07948). In words: Inhibition of Lyn.
Sequence of Tyrosine-protein kinase Lyn (P07948 whole entry): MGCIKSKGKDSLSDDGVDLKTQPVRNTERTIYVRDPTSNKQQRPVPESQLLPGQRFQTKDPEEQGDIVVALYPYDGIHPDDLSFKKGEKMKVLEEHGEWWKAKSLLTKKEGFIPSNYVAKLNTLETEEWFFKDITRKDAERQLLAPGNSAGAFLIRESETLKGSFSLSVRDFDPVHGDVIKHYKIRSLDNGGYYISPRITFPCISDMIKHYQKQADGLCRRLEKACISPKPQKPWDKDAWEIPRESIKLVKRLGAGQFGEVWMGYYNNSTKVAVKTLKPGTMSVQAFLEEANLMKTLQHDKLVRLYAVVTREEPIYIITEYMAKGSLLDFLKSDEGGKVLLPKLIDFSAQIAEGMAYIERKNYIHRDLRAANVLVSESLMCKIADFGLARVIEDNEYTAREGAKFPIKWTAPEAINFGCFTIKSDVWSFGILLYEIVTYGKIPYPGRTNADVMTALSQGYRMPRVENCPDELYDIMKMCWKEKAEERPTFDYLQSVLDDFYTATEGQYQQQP
Data set [11] has as its target T2, Tyrosine-protein kinase ITK/TSK (Homo sapiens, UniProt Q08881).
T2 sequence (Q08881 whole entry): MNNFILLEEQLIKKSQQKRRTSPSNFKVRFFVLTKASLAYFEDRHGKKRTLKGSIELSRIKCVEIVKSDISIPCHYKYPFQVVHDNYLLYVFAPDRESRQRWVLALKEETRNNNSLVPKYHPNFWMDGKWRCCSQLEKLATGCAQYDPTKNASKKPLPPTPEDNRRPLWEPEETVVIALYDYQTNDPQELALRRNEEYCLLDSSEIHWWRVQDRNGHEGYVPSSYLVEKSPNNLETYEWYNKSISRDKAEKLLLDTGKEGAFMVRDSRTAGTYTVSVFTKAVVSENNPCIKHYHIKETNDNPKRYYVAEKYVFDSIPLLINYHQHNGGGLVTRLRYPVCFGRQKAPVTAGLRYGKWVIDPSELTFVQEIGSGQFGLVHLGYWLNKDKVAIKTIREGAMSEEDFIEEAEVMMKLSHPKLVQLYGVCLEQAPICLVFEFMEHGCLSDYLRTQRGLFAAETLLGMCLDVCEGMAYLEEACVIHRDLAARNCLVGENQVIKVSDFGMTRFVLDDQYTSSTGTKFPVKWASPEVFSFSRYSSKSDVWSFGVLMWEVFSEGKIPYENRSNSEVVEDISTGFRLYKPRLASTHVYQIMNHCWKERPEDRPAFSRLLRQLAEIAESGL
In words: Inhibition of ITK.

In data set [12] the target is Tyrosine-protein kinase CSK (Homo sapiens, UniProt P41240). In words: Inhibition of CSK.
Data set [13] deals with Tyrosine-protein kinase Fes/Fps (Homo sapiens, UniProt P07332). Description: Inhibition of Fes.
In data set [14] the target is Tyrosine-protein kinase JAK1 (Homo sapiens, UniProt P23458). Description: Inhibition of Jak1.
Data set [15] deals with Tyrosine-protein kinase JAK2 (Homo sapiens, UniProt O60674). Description: Inhibition of Jak2.
The target in data set [16] is T3, Tyrosine-protein kinase JAK3 (Homo sapiens, UniProt P52333).
T3 sequence (P52333 whole entry): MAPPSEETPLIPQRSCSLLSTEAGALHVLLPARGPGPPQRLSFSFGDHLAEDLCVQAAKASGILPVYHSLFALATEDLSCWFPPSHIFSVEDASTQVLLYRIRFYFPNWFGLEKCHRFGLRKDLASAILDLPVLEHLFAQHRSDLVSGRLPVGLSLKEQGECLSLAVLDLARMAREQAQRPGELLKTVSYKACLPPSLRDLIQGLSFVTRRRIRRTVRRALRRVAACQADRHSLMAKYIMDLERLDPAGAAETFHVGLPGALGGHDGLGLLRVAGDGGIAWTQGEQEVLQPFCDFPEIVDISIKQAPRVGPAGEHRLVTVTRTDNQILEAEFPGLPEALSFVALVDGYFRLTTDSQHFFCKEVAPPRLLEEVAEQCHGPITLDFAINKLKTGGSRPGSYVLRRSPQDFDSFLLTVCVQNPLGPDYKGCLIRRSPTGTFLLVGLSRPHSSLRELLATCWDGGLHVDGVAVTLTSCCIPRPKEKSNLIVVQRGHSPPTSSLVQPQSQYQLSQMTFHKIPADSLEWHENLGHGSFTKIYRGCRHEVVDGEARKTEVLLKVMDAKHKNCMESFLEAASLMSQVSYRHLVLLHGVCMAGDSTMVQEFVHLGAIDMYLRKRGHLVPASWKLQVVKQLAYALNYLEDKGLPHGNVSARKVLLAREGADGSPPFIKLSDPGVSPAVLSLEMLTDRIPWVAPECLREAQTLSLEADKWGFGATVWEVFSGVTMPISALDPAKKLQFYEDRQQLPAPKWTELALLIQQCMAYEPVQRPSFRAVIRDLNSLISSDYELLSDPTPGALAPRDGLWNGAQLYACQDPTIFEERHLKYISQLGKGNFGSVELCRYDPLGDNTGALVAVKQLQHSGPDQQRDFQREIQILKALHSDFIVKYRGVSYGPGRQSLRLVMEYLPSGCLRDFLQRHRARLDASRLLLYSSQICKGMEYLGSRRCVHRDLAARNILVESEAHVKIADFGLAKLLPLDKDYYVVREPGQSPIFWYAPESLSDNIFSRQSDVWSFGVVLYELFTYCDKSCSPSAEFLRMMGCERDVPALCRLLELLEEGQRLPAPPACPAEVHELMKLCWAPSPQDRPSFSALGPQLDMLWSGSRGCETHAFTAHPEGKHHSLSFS
Description: Inhibition of Jak3.

Another data set has as its target T4, Ephrin type-B receptor 4 (Homo sapiens, UniProt P54760).
T4 sequence (P54760 whole entry): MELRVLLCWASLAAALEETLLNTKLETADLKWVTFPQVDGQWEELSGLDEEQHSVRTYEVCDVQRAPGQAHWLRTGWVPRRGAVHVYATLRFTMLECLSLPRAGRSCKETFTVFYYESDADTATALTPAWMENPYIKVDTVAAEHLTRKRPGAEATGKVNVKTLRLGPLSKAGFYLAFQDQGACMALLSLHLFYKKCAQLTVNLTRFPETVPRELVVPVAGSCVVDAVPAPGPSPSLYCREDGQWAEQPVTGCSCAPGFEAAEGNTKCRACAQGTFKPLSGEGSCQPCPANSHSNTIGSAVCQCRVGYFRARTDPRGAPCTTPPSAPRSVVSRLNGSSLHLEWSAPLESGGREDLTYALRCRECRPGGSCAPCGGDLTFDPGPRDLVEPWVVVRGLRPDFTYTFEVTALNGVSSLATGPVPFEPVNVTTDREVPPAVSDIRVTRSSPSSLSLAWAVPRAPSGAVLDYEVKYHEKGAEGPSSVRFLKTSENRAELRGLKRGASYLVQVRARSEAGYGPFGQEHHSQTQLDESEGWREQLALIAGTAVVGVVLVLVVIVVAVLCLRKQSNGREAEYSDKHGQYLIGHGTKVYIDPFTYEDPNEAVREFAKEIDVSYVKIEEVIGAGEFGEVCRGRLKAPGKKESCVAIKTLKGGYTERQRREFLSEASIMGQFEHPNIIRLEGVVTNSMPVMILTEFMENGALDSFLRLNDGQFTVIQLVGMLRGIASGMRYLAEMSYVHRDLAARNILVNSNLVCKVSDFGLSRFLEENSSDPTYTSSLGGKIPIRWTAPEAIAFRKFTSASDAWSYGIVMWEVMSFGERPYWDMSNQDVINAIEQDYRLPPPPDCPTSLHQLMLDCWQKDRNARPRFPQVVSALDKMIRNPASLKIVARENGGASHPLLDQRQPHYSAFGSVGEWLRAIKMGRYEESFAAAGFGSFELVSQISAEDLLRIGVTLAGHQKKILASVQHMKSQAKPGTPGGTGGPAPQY
In words: Inhibition of EpHB4.

Data set [17] deals with Mast/stem cell growth factor receptor Kit (Homo sapiens, UniProt P10721). Description: Inhibition of c-Kit.
A further data set addresses Insulin receptor (Homo sapiens, UniProt P06213). Description: Inhibition of INSR.
Data set [18] concerns the target High affinity nerve growth factor receptor (Homo sapiens, UniProt P04629). Description: Inhibition of TrkA.
Data set [19] addresses Hepatocyte growth factor receptor (Homo sapiens, UniProt P08581). In words: Inhibition of c-Met.
Data set [20] has as its target Mitogen-activated protein kinase 14 (Homo sapiens, UniProt Q16539). Description: Inhibition of p38alpha.
For data set [21], the target named is Angiopoietin-1 receptor (Mus musculus) (UniProt Q02858). In words: Inhibition of angiopoietin-1-induced TIE2 phosphorylation in CD1 NU/NU mouse. Format: functional.
Sequence of Angiopoietin-1 receptor (Mus musculus) (Q02858 whole entry): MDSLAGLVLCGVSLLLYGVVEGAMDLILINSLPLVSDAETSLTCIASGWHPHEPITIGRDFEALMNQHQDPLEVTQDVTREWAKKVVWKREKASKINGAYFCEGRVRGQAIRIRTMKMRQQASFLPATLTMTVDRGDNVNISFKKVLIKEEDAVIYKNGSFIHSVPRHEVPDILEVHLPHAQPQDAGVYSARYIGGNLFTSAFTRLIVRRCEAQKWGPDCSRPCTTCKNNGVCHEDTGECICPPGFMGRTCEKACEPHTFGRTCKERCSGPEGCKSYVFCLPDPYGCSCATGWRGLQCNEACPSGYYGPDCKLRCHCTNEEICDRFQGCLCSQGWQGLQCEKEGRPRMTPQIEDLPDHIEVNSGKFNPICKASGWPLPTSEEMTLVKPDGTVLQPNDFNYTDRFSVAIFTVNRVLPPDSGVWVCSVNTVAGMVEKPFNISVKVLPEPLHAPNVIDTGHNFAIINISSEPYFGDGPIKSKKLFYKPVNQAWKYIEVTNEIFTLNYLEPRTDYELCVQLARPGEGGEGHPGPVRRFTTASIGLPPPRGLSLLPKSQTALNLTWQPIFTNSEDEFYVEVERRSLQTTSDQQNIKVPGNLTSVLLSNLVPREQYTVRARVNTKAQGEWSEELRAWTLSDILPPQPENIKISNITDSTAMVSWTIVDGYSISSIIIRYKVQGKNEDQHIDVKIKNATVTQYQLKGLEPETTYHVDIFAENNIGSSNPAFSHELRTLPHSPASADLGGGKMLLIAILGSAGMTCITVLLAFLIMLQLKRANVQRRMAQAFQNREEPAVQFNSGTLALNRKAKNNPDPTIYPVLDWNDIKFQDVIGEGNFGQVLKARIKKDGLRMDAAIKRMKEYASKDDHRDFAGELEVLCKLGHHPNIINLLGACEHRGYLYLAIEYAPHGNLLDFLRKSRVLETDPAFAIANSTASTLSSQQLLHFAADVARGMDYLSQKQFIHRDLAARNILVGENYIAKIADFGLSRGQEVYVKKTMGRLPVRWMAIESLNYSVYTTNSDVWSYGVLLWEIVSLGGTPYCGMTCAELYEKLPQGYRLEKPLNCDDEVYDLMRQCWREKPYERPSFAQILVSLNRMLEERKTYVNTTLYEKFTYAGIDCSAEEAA
Data set [22] has the same target. In words: Inhibition of angiopoietin-1-induced TIE2 phosphorylation in CD1 NU/NU mouse at 10 mg/kg. The format is functional, organism-based. Also noted: dose 10 mg/kg.
For a further data set, the system named is Mus musculus. In words: Plasma concentration in CD1 NU/NU mouse at 10 mg/kg. Format: ADME, organism-based. Also noted: dose 10 mg/kg. The settings on record: in vivo.
Data set [23] in a line: Plasma protein binding in CD1 NU/NU mouse. The format is ADME, cell-free. The following applies: read-out: PPB (converted).
Data set [24] deals with T1, Angiopoietin-1 receptor.
Description: Inhibition of TIE2 by HTRF assay

SMILES strings stand for the structures.

Experimental findings from ChEMBL document CHEMBL1141381, “Alkynylpyrimidine amide derivatives as potent, selective, and orally active inhibitors of Tie-2 kinase” (J Med Chem, 2007) are described below.

Usually IC50 stands for the concentration that gives 50% inhibition. As a reminder, the clearance is a measure of how efficiently the substance is removed, as volume per time. The low end stands for a low capacity for elimination, the high end for a high capacity for elimination. Usually half-life stands for how long it takes for the measured level to halve. Low readings indicate fast loss, high ones slow loss. As a reminder, the AUC(0-inf) is total exposure, with the tail of the curve extrapolated. Usually bioavailability stands for the share of a dose that reaches the circulation, judged against a reference dose that is usually intravenous. One may read the inhibition as the change of the read-out against control, counted positive when it falls.

Sequence of Vascular endothelial growth factor receptor 2 (P35968 whole entry): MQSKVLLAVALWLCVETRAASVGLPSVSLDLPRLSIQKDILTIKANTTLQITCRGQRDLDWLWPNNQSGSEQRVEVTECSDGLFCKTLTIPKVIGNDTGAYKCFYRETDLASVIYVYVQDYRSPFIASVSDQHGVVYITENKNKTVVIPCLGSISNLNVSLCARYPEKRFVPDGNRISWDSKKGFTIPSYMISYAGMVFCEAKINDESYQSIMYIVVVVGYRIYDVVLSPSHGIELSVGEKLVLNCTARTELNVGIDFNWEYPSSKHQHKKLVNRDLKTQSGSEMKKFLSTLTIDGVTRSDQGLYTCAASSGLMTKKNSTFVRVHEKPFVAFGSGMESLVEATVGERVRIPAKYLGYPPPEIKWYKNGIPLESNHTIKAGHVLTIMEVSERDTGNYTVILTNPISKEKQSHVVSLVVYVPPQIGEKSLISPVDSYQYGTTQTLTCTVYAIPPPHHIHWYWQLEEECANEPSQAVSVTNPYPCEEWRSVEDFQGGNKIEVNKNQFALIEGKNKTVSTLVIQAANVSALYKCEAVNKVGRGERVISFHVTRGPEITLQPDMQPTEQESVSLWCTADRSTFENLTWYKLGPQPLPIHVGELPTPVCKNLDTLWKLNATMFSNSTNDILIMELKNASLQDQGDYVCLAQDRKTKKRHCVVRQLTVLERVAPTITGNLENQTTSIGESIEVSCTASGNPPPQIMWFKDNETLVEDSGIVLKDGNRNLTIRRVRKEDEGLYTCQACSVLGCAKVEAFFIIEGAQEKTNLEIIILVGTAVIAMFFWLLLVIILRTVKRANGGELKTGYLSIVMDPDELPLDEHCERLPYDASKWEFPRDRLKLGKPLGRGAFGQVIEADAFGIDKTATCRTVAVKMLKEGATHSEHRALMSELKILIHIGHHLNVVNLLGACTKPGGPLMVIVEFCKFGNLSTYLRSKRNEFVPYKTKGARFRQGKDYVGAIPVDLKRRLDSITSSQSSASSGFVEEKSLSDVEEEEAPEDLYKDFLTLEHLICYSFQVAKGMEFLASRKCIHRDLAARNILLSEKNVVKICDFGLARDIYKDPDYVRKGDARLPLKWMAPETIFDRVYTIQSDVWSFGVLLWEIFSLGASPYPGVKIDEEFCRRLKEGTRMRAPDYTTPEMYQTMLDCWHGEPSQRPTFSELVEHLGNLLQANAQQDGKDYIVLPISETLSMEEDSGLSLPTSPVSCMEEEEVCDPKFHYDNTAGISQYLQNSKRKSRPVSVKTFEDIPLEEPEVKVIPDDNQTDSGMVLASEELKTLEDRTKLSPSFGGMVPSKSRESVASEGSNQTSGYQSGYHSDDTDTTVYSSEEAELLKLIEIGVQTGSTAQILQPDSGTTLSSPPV
Sequence of Tyrosine-protein kinase Lck (P06239 whole entry): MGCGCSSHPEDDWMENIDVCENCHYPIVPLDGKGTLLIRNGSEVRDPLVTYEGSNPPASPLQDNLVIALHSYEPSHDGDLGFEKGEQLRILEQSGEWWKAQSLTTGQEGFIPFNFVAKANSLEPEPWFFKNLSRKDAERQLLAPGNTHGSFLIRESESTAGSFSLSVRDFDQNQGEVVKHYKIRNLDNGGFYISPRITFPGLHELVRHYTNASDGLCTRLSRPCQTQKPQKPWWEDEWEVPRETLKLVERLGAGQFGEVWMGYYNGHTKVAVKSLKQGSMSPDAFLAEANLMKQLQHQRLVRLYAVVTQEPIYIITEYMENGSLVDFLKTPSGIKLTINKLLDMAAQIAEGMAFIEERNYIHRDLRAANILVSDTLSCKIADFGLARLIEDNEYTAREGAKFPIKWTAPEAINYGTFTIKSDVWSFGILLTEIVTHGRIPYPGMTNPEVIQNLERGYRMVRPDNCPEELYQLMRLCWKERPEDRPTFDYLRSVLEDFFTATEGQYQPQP
Sequence of Mitogen-activated protein kinase 14 (Q16539 whole entry): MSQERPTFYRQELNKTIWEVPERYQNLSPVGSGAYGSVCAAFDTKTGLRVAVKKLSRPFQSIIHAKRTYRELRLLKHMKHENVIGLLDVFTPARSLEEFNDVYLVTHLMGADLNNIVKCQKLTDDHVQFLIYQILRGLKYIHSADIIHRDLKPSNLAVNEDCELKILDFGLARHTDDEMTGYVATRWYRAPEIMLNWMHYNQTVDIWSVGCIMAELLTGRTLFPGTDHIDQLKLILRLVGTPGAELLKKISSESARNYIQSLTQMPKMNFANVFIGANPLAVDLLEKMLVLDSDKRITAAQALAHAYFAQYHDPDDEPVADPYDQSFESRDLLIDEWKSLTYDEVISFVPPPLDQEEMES

Regarding `COc1ccc(C#Cc2cnc(N)nc2)cc1C(=O)Nc1cc(C(F)(F)F)ccc1N1CCCCC1`, the IC50 in data set [1] was > 25000 nM.
In data set [2], `Nc1ncc(C#Cc2ccc(F)c(C(=O)Nc3cc(C(F)(F)F)ccc3N3CCC[C@H](N)C3)c2)cn1` showed a clearance of 5.33 mL/min/kg. In addition, the Vd in data set [3] was 4.6 L/kg. This compound had a half-life in data set [4] of 11.4 h. The compound also had an AUC(0-inf) in [5] of 9300 ng·h/mL. Besides, the bioavailability in data set [6] came out at 51%.
On to `Nc1ncc(C#Cc2cccc(C(=O)Nc3cc(C(F)(F)F)ccc3N3CCCCC3)c2)cn1`, for which the concentration for half-maximal inhibition (IC50) in data set [7] was > 1000 nM.
Same read-out and setting: with `Cc1ccc(C(=O)Nc2cc(C(F)(F)F)ccc2N2CCCCC2)cc1C#Cc1cnc(N)nc1` the figure was > 1000 nM.
Consider `Nc1ncc(C#Cc2cccc(C(=O)Nc3cccc(C(F)(F)F)c3)c2)cn1`, for which the IC50 in data set [7] is < 1 nM.
Compound `CN(C)[C@H]1CCCN(c2ccc(C(F)(F)F)cc2NC(=O)c2cc(C#Cc3cnc(N)nc3)ccc2F)C1` showed a clearance in data set [2] of 40 mL/min/kg. For the same compound, the Vd in data set [3] amounted to 11.8 L/kg. In [4], this compound gave a half-life of 7.9 h. Besides, the AUC(0-inf) in [5] was 800 ng·h/mL. In data set [6], the bioavailability was 39%. Moreover, the IC50 on Angiopoietin-1 receptor [8] is 8 nM; in [9], 43 nM; in data set [10], 180 nM; in data set [11], > 5000 nM; in [12], 1800 nM; in [13], 910 nM. Moreover, the IC50 in data set [14] worked out at 1300 nM; in [15] it was 550 nM; in [16], 1700 nM; on Ephrin type-B receptor 4 it was 290 nM; in data set [17], 2800 nM; against Insulin receptor it was 2900 nM. In addition, the IC50 in data set [18] was 18 nM; in [19], > 6700 nM; in data set [20], > 8300 nM; against Angiopoietin-1 receptor [24], 5 nM. Besides, the Activity entry in data set [21] is “Dose-dependent effect”. In data set [22], this compound registered an inhibition of 50%. For the same compound, the concentration with Mus musculus was found to be 1660 nM. For the same compound, in data set [23], the fraction unbound is 0.021.
Regarding `Cc1ccc(C(=O)Nc2cccc(C(F)(F)F)c2)cc1C#Cc1cnc2[nH]cnc2c1`, the half-inhibitory concentration (IC50) in data set [7] and in data set [1] was < 1 nM each time.
With `CN[C@H]1CCCN(c2ccc(C(F)(F)F)cc2NC(=O)c2cc(C#Cc3cnc(N)nc3)ccc2F)C1`, in data set [2], the clearance was 2.5 mL/min/kg. The Vd in [3] was determined as 2.2 L/kg. For the same compound, in data set [4], the half-life was 10.6 h. In data set [5], this compound gave an AUC(0-inf) of 18600 ng·h/mL. In addition, the bioavailability in [6] came out at 54%.
As for `CN(C)[C@@H]1CCCN(c2ccc(C(F)(F)F)cc2NC(=O)c2cc(C#Cc3cnc(N)nc3)ccc2F)C1`, the IC50 on Angiopoietin-1 receptor [8] stood at 98 nM; on Angiopoietin-1 receptor [24], 44 nM.
`Cc1ccc(C(=O)Nc2cccc(C(F)(F)F)c2)cc1-c1ccc2nc(N)ncc2c1`: the results for the half-maximal inhibitory concentration (IC50) (on Angiopoietin-1 receptor [24]; in data set [1]) were 1 nM and < 1 nM, respectively.
